Among the test systems are 786-0 renal; CCRF-CEM leukemia; SK-OV-3 ovarian; OVCAR-5 ovarian; COLO 205 colon; CAKI-1 renal; MALME-3M melanoma; SR leukemia.
What all share (assay): DTP human tumour cell line panel, 48 h

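How tested: cells in 96-well plates exposed to compound for 48 hours at five concentrations. GI50 is the concentration that inhibits growth by half. TGI: total growth inhibition.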 A value given as a limit tells only on which side of the number the result lay.

In general, GI50 refers to the concentration at which growth is held to half of that of the control. A word on the TGI: it is the concentration giving total growth inhibition. Low readings indicate greater sensitivity of the cells, high ones lower sensitivity of the cells.

Take `O=[N+]([O-])c1ccc(N2CCOCC2)c2c1no[n+]2[O-]`: the GI50 in the test on 786-0 renal is 2.12 µM; in the test on CCRF-CEM leukemia, 0.728 µM; in the test on SK-OV-3 ovarian, 1.43 µM; in the test on OVCAR-5 ovarian, 3.28 µM; in the test with COLO 205 colon it was 0.906 µM; with CAKI-1 renal, 0.443 µM. For the same compound, the GI50 in the test with MALME-3M melanoma is 1.52 µM. Moreover, the TGI turned out to be 6 µM in the test with 786-0 renal; 3.86 µM with CCRF-CEM leukemia; 4.68 µM with SK-OV-3 ovarian; 13.4 µM in the test with OVCAR-5 ovarian; 2.24 µM in the test on COLO 205 colon; 1.89 µM in the test on CAKI-1 renal. This compound came in with a TGI with MALME-3M melanoma of 4.28 µM.

On to `N#CCCN1C/C(=C/c2ccc(Cl)cc2)C(=O)/C(=C/c2ccc(Cl)cc2)C1`, for which the GI50 was 0.868 µM in the test on 786-0 renal; 0.396 µM in the test with CCRF-CEM leukemia; 2.23 µM with SK-OV-3 ovarian; 2.07 µM with OVCAR-5 ovarian; 1.25 µM in the test with COLO 205 colon; 2.95 µM with CAKI-1 renal. Moreover, the GI50 in the test with MALME-3M melanoma is 2.24 µM. Besides, the TGI in the test with 786-0 renal came to 2.77 µM; with CCRF-CEM leukemia, 2.88 µM; in the test with SK-OV-3 ovarian it was 5.4 µM; in the test on OVCAR-5 ovarian it was 4.7 µM; in the test on COLO 205 colon, 2.64 µM; in the test on CAKI-1 renal, 12 µM. The TGI with MALME-3M melanoma was determined as 5.22 µM.

In the case of `CCCCCO/N=C\c1c2c(O)c3c(O)c(C)c4c(c3c1O)C(=O)C(C)(O/C=C\C(OC)C(C)C(OC(C)=O)C(C)C(O)C(C)C(O)C(C)/C=C\C=C(\C)C(=O)N2)O4` (stereo not drawn), the GI50 is 1.73 µM in the test with 786-0 renal; 2.92 µM in the test with CCRF-CEM leukemia; 2.88 µM with SR leukemia; 2.29 µM in the test on SK-OV-3 ovarian; 1.94 µM in the test with OVCAR-5 ovarian; 1.52 µM in the test with COLO 205 colon. Also, the GI50 with CAKI-1 renal is 1.91 µM. Further, the TGI with 786-0 renal came to 3.25 µM; with CCRF-CEM leukemia, 10.2 µM; in the test on SR leukemia, 7.34 µM; with SK-OV-3 ovarian it was 6.84 µM; with OVCAR-5 ovarian, 4.12 µM; in the test on COLO 205 colon it was 2.85 µM. Also, the TGI in the test with CAKI-1 renal is 4.5 µM.

Regarding `Cc1ccc(-c2nc([P+](c3ccccc3)(c3ccccc3)c3ccccc3)c(S(=O)(=O)c3ccc(C)cc3)o2)cc1`, the GI50 in the test on 786-0 renal is 1.46 µM; in the test on CCRF-CEM leukemia it was 0.606 µM; with SK-OV-3 ovarian it was 3.74 µM; with OVCAR-5 ovarian, 1.58 µM; in the test on COLO 205 colon, 1.71 µM; in the test on CAKI-1 renal, 1.36 µM. Further, the GI50 with MALME-3M melanoma was 1.02 µM. Further, the TGI came to 2.85 µM in the test with 786-0 renal; 6.94 µM in the test with CCRF-CEM leukemia; 12.5 µM in the test with SK-OV-3 ovarian; 3.18 µM in the test with OVCAR-5 ovarian; 4.28 µM with COLO 205 colon; 2.71 µM in the test on CAKI-1 renal. This compound also yielded a TGI in the test with MALME-3M melanoma of 2.19 µM.

Consider `c1ccc(CCc2cccnc2)nc1`, for which the TGI in the test on 786-0 renal, in the test on SR leukemia, in the test with SK-OV-3 ovarian, in the test on OVCAR-5 ovarian, in the test with COLO 205 colon and with CAKI-1 renal was more than 100 µM each time. The same compound returned a TGI in the test with MALME-3M melanoma of more than 100 µM.

As to `O=C(O)CCC(=O)c1ccc2sc3ccccc3c2c1`, the total growth inhibition concentration (TGI) in the test on 786-0 renal, in the test with SR leukemia, in the test with SK-OV-3 ovarian, in the test on OVCAR-5 ovarian, with COLO 205 colon and in the test on CAKI-1 renal was more than 100 µM each time. For the same compound, in the test on MALME-3M melanoma, the TGI is more than 100 µM.

With `CN(CCNCc1ccccn1)CCNCc1ccccn1`, the GI50 with 786-0 renal was 1.8 µM; with CCRF-CEM leukemia, 3.87 µM; in the test on SR leukemia it was 3.71 µM; with SK-OV-3 ovarian, 2.24 µM; in the test with OVCAR-5 ovarian, 2.66 µM; in the test on COLO 205 colon, 2.53 µM. For the same compound, the GI50 with MALME-3M melanoma was 1.46 µM. The TGI is 3.57 µM in the test with 786-0 renal; more than 100 µM in the test on CCRF-CEM leukemia; 43 µM in the test with SR leukemia; 5.27 µM in the test with SK-OV-3 ovarian; 8.57 µM in the test with OVCAR-5 ovarian; 6.02 µM in the test on COLO 205 colon. This compound also yielded a TGI with MALME-3M melanoma of 3.94 µM.

As for `COc1cc2c(cc1OCCCCN1CCN(C(=S)SCCC(C#N)(c3ccccc3)c3ccccc3)CC1)N=C[C@@H]1CCCN1C2=O`, the GI50 in the test with 786-0 renal was 1.28 µM; in the test with CCRF-CEM leukemia, 0.532 µM; in the test with SK-OV-3 ovarian, 2.96 µM; in the test on OVCAR-5 ovarian, 2.47 µM; in the test on COLO 205 colon, 1.4 µM; in the test with CAKI-1 renal, 0.597 µM. Moreover, the GI50 in the test on MALME-3M melanoma is 1.36 µM. In addition, the TGI in the test on 786-0 renal is 2.8 µM; with CCRF-CEM leukemia, more than 100 µM; in the test on SK-OV-3 ovarian it was 9.81 µM; in the test with OVCAR-5 ovarian it was 5.38 µM; in the test on COLO 205 colon it was 5.66 µM; in the test with CAKI-1 renal, 2.7 µM. In the test with MALME-3M melanoma, this compound came in with a TGI of 3.04 µM.

On to `Cc1cc(N(CCCNc2ccnc3cc(Cl)ccc23)Cc2ccco2)nc(N2CCN(C)CC2)n1`, for which the GI50 was 1.83 µM in the test with 786-0 renal; 2.84 µM in the test on CCRF-CEM leukemia; 2.08 µM in the test on SR leukemia; 5.99 µM in the test with SK-OV-3 ovarian; 6.08 µM in the test on OVCAR-5 ovarian; 1.89 µM in the test with COLO 205 colon. Besides, the GI50 with MALME-3M melanoma is 1.83 µM. The TGI with 786-0 renal came to 3.63 µM; with CCRF-CEM leukemia, 10.2 µM; in the test on SR leukemia it was 5.62 µM; with SK-OV-3 ovarian it was 31.2 µM; with OVCAR-5 ovarian, 21.8 µM; with COLO 205 colon it was 3.94 µM. Further, the TGI in the test with MALME-3M melanoma is 3.5 µM.

Regarding `COc1ccc(-c2nc(/C=C3\SC(=NCc4ccccc4)NC3=O)c3ccccn23)cc1`, the GI50 is 0.189 µM in the test with 786-0 renal; 2.83 µM in the test on CCRF-CEM leukemia; 2.5 µM with SR leukemia; 2.05 µM in the test with SK-OV-3 ovarian; 1.5 µM in the test on OVCAR-5 ovarian; 2.75 µM in the test with COLO 205 colon. Besides, the GI50 in the test with CAKI-1 renal was 1.76 µM. Moreover, the TGI was 0.498 µM in the test with 786-0 renal; more than 100 µM in the test with CCRF-CEM leukemia; more than 100 µM in the test on SR leukemia; 4.28 µM in the test on SK-OV-3 ovarian; 2.45 µM in the test on OVCAR-5 ovarian; 7.66 µM in the test on COLO 205 colon. The compound also had a TGI in the test with CAKI-1 renal of 3.55 µM.

For the compound `N#CCN1CCn2c1nsc2=S`, the GI50 with 786-0 renal is more than 100 µM; with CCRF-CEM leukemia it was 1.6 µM; with SR leukemia it was 1.09 µM; in the test on SK-OV-3 ovarian, more than 100 µM; in the test on COLO 205 colon, 85.5 µM; with CAKI-1 renal, more than 100 µM. Moreover, the total growth inhibition concentration (TGI) in the test with 786-0 renal was more than 100 µM; in the test with CCRF-CEM leukemia, more than 100 µM; with SR leukemia, 24.1 µM; in the test with SK-OV-3 ovarian, more than 100 µM; in the test with COLO 205 colon it was more than 100 µM; with CAKI-1 renal it was more than 100 µM.

Turning to `C(=N/N(Cc1ccccc1)Cc1ccccc1)/c1ccccc1`, the GI50 was more than 100 µM in the test on 786-0 renal; more than 100 µM with SK-OV-3 ovarian; more than 100 µM with OVCAR-5 ovarian; more than 100 µM with COLO 205 colon; more than 100 µM with CAKI-1 renal; 41.1 µM with MALME-3M melanoma. Also, the TGI with 786-0 renal, in the test on SK-OV-3 ovarian, with OVCAR-5 ovarian, in the test with COLO 205 colon, in the test with CAKI-1 renal and in the test on MALME-3M melanoma was more than 100 µM throughout.

With `COc1ccc(N(CC(=O)NCCC[Te]c2ccccc2)C(=O)CNC(=O)OC(C)(C)C)cc1`, the GI50 in the test on 786-0 renal was 3.75 µM; in the test on SR leukemia, 1.66 µM; in the test on SK-OV-3 ovarian it was 2.34 µM; in the test with OVCAR-5 ovarian, 3 µM; with COLO 205 colon, 2.01 µM; in the test with CAKI-1 renal, 2.1 µM. Moreover, in the test with MALME-3M melanoma, the GI50 was 15.7 µM. Also, the TGI in the test with 786-0 renal was found to be 13 µM; in the test on SR leukemia it was 7.75 µM; in the test on SK-OV-3 ovarian it was 4.83 µM; with OVCAR-5 ovarian, 7.48 µM; in the test on COLO 205 colon, 3.83 µM; in the test on CAKI-1 renal it was 5.6 µM. In the test with MALME-3M melanoma, this compound displayed a TGI of 32.8 µM.

Consider `COc1ccc(NC(=O)C2CCC(CNS(=O)(=O)c3ccccc3)CC2)cc1OC` (stereo not drawn), for which the GI50 is more than 100 µM in the test on 786-0 renal; more than 100 µM in the test on CCRF-CEM leukemia; 0.542 µM in the test with SR leukemia; more than 100 µM in the test on OVCAR-5 ovarian; more than 100 µM with CAKI-1 renal; 40.3 µM with MALME-3M melanoma. Besides, the TGI with 786-0 renal, in the test on CCRF-CEM leukemia, in the test on SR leukemia, with OVCAR-5 ovarian, in the test on CAKI-1 renal and with MALME-3M melanoma was more than 100 µM each time.

`COc1cc2c(cc1OC)-c1ncc3c(OC)c(OC)c(OC)cc3c1C2`: the GI50 in the test with 786-0 renal is 36.7 µM; with SR leukemia it was 0.609 µM; in the test with SK-OV-3 ovarian, 18.9 µM; in the test with OVCAR-5 ovarian, 26.6 µM; in the test with COLO 205 colon, more than 100 µM; with CAKI-1 renal it was 55.2 µM. Besides, the TGI in the test with 786-0 renal is more than 100 µM; in the test with SR leukemia it was 2.47 µM; in the test with SK-OV-3 ovarian it was 43.2 µM; with OVCAR-5 ovarian it was more than 100 µM; in the test on COLO 205 colon, more than 100 µM; in the test on CAKI-1 renal, more than 100 µM.

As for `COc1ncnc(NS(=O)(=O)c2ccc(N=C3C(=O)N(CN4CCN(c5c(F)cc6c(=O)c(C(=O)O)cn(C7CC7)c6c5OC)CC4C)c4ccc(Br)cc43)cc2)c1OC` (stereo not drawn), the GI50 was 38.8 µM in the test on 786-0 renal; 42.7 µM with SR leukemia; 5 µM in the test on OVCAR-5 ovarian; 10.8 µM with COLO 205 colon; 6.21 µM with CAKI-1 renal. Further, the TGI in the test with 786-0 renal is more than 50 µM; with SR leukemia, more than 50 µM; in the test on OVCAR-5 ovarian, more than 50 µM; in the test on COLO 205 colon, 39.9 µM; in the test on CAKI-1 renal, more than 50 µM.

The record behind these values is PubChem BioAssay (NCI).
